Here are results for eight compounds from patent US5786349A, “Method for treating chlamydia infectious diseases by rifamycin derivative” (Kaneka Corporation, priority 1995, dated 1998).

Test [1] has as its system Chlamydia pneumoniae AR-39. Put plainly: In vitro test 3: inhibition of inclusion formation in HeLa 229 cells, about 5 times the inoculum of test 2, C. pneumoniae AR-39. The note with it: AR39, 72 h, read-out: Minimum inhibitory concentration AR-39.
In test [2] the test system is Chlamydia pneumoniae TW-183. Put plainly: In vitro test 3: inhibition of inclusion formation in HeLa 229 cells, about 5 times the inoculum of test 2, C. pneumoniae TW-183. The note with it: TW183, 72 h, read-out: Minimum inhibitory concentration TW-183.
The subject of test [3] is Chlamydia trachomatis D/UW-3/Cx. The test is described as follows: In vitro test 1: inhibition of inclusion formation in HeLa 229 cells (Japan Society of Chemotherapy standard method), C. trachomatis D/UW-3/Cx. The note with it: rifampicin vs compound 4.
The test system of test [4] is Chlamydia trachomatis F/UW-6/Cx. Put plainly: In vitro test 1: inhibition of inclusion formation in HeLa 229 cells (Japan Society of Chemotherapy standard method), C. trachomatis F/UW-6/Cx. The note with it: rifampicin vs compound 4.
The subject of test [5] is Chlamydia pneumoniae AR-39. The test is described as follows: Infection-therapy test: mouse pneumonia model. The following applies: 1 mg/kg/day i.p. for 3 days.

≈ marks a conversion by molar mass, not a printed value. Where “and” joins values, the source holds several entries; their conditions need not be identical. Equal values may be shown once.

On to `CC[C@H]1OC(=O)[C@H](C)[C@@H](O[C@H]2C[C@@](C)(OC)[C@@H](O)[C@H](C)O2)[C@H](C)[C@@H](O[C@@H]2O[C@H](C)C[C@H](N(C)C)[C@H]2O)[C@](C)(O)C[C@@H](C)CN(C)[C@H](C)[C@@H](O)[C@]1(C)O` [Azithromycin, reference compound], for which the MIC stood at 500 ng/mL (≈ 668 nM) in test [1] and 250 ng/mL (≈ 334 nM) in test [2].

As to `COC1C=COC2(C)Oc3c(C)c(O)c4c(=O)c(c5oc6cc(N7CCN(CC8OCCO8)CC7)cc(O)c6nc-5c4c3C2=O)NC(=O)C(C)=CC=CC(C)C(O)C(C)C(O)C(C)C(OC(C)=O)C1C` (centres unmarked), the MIC turned out to be 0.63 ng/mL (≈ 0.649 nM) in test [1] and 2.5 ng/mL (≈ 2.57 nM) in test [2].

With `COC1C=COC2(C)Oc3c(C)c(O)c4c(=O)c(c5oc6cc(N7CCN(C)CC7)cc(O)c6nc-5c4c3C2=O)NC(=O)C(C)=CC=CC(C)C(O)C(C)C(O)C(C)C(OC(C)=O)C1C` (centres unmarked) [Compound 2], the MIC in test [1] was found to be 0.16 ng/mL (≈ 0.178 nM); in test [2], 0.63 ng/mL (≈ 0.701 nM).

On to `COC1C=COC2(C)Oc3c(C)c(O)c4c(=O)c(c5oc6cc(N7CCN(CC(C)C)CC7)cc(O)c6nc-5c4c3C2=O)NC(=O)C(C)=CC=CC(C)C(O)C(C)C(O)C(C)C(O)C1C` (centres unmarked) [Compound 5], for which the figures for the MIC in test [1] and in test [2] were 2.5 ng/mL (≈ 2.78 nM) and 1.25 ng/mL (≈ 1.39 nM), respectively.

With `CO[C@H]1/C=C/O[C@@]2(C)Oc3c(C)c(O)c4c(O)c(c(/C=N/N5CCN(C)CC5)c(O)c4c3C2=O)NC(=O)/C(C)=C\C=C\[C@H](C)[C@H](O)[C@@H](C)[C@@H](O)[C@@H](C)[C@H](OC(C)=O)[C@@H]1C` [rifampicin], the “MIC as multiple of the concentration for the compound 4” value in test [3] and in test [4] was “about 30 times” throughout.

`COC1C=COC2(C)Oc3c(C)c(O)c4c(=O)c(c5oc6cc(N7CCOCC7)cc(O)c6nc-5c4c3C2=O)NC(=O)C(C)=CC=CC(C)C(O)C(C)C(O)C(C)C(OC(C)=O)C1C` (centres unmarked) [Compound 1]: the MIC in test [1] is 1.25 ng/mL (≈ 1.41 nM); in test [2], 0.63 ng/mL (≈ 0.711 nM).

Regarding `COC1C=COC2(C)Oc3c(C)c(O)c4c(=O)c(c5oc6cc(N7CCN(CC(C)C)CC7)cc(O)c6nc-5c4c3C2=O)NC(=O)C(C)=CC=CC(C)C(O)C(C)C(O)C(C)C(OC(C)=O)C1C` (centres unmarked) [Compound 4], the MIC in test [1] and in test [2] was 1.25 ng/mL (≈ 1.33 nM) each time. Moreover, the “Mice from which Chlamydia was reisolated from the lung/tested mice” value is 3/3 in test [5] (2 days after infection); “only one mouse in a group of 5 mice and 1/5” in test [5] (7 days after infection (3 days after completion of treatment), 1 mg/kg/day); 0/5 in test [5] (9 days after infection (5 days after completion of treatment)); 0/5 in test [5] (14 days after infection (10 days after completion of treatment)); 0/5 in test [5] (19 days after infection (15 days after completion of treatment)). The reisolation of organisms result in test [5] (after the 5th day from completion of treatment) is “no reisolation of organisms was observed”. For the same compound, the death of mice entry in test [5] (treatment group) is reported as “no death of the treatment group of mice was observed”.

In the case of `CCCN1CCN(c2cc(O)c3nc4c5c6c7c(C)c(O)c5c(=O)c(c-4oc3c2)NC(=O)C(C)=CC=CC(C)C(O)C(C)C(O)C(C)C(OC(C)=O)C(C)C(OC)C=COC(C)(O7)C6=O)CC1` (centres unmarked) [Compound 3], the figures for the MIC in test [1] and in test [2] were 1.25 ng/mL (≈ 1.35 nM) and 5 ng/mL (≈ 5.39 nM), respectively.
